From paper PMC4627284, “High-throughput simultaneous screen and counterscreen identifies homoharringtonine as synthetic lethal with von Hippel-Lindau loss in renal cell carcinoma” (Oncotarget, 2015)

Tests used:
[1] = tested on: VHL-deficient 786-O cells; experiment: High-throughput simultaneous screen and counterscreen, 1:1 mix of EV^GFP and VHL^mCh 786-O cells, fluorescence imaging; type: cell-based, human; conditions: 2 nM; equally affected VHL-deficient and VHL-reconstituted cells
Description: To identify small molecule compounds synthetic lethal with VHL, we carried out an unbiased cell-based screen of a chemical library of ~12,800 compounds using 786-O cells, an extensively studied cell line derived from a VHL-deficient primary human ccRCC [26]. 786-O cells were stably transfected with either an empty vector (EV) control or reconstituted with an HA-tagged VHL cDNA. […] To distinguish between the two otherwise isogenic cell lines, we transduced the VHL-deficient 786-O cells with a histone H2B-GFP reporter and the VHL-reconstituted cells with an H2B-mCherry reporter. The histone proteins drive the fluorochrome to nuclei facilitating cell identification and segmentation algorithms (Figure 1A and 1B). […]
Figure 1 Screening strategy to identify compounds that are synthetic lethal with VHL A. Schematic diagram of a ~12,800 chemical library synthetic lethal screen. […] Fluorescence imaging (using the BD Pathway 855 imager) was used to identify compounds preferentially depleting VHL-deficient/GFP-positive cells after cells were segmented. B. Left panel: Representative image of fluorescence signal from Hoescht-labeled 786-O cells. Right panel: overlay of GFP fluorescence signal (green; from 786-O EV^GFP cells) and mCherry fluorescence nuclear signal (red; VHL^mCh cells). […] Toxicity was determined as ≤100 VHL^mCh cells per field. […]

[2] = tested on: VHL-mutant patient-derived ccRCC tumorgraft lines; experiment: ccRCC tumorgraft model, six VHL-mutant tumorgraft lines; type: in vivo, NOD/SCID mice; conditions: 0.5 mg/kg IP once every 48 hours, positive control
Procedure: We selected 6 independently-derived ccRCC tumorgraft lines that were confirmed to have VHL mutation. The mice (3-5 mice per tumorgraft line) were treated with either HHT (0.7 mg/kg), vehicle (as a negative control), or rapamycin (0.5 mg/kg; as a positive control). In total, 65 tumorgraft bearing mice were evaluated for these experiments in time courses lasting ~28 days, with tumor growth measured every 3 or 4 days.
Figure 3 HHT inhibits tumor growth in a ccRCC tumorgraft model A-F, Tumorgraft lines were treated with vehicle control, HHT (0.7 mg/kg), rapamycin (0.5 mg/kg), (or the combination, where indicated) and tumor growth was measured on the indicated days. Day 0 represents the first day of treatment.
Tumorgrafts were generated and propagated as described previously, with tumor samples implanted subcutaneously into the flank of the mouse for drug trials. Briefly, 4- to 8-week-old NOD/SCID mice were anesthetized with isoflurane and implanted subcutaneously with 64 mm^3 tumor fragments (cohorts 2-20). Once tumors reached an average of at least ~250 mm^3, drug treatment was begun. The mice were treated with vehicle, 0.7 mg/kg homoharringtonine (HHT) via gavage twice daily, or 0.5 mg/kg rapamycin given by IP injection once every 48 hours. Tumor size (volume) was measured twice weekly and was obtained by multiplying tumor length, width, and depth using calipers. To assess toxicity, mouse weight was monitored once weekly.
Sections from tumors were stained with hematoxylin and eosin (H&E) as described previously.

## CO[C@H]1C[C@@H]2CC[C@@H](C)[C@@](O)(O2)C(=O)C(=O)N2CCCC[C@H]2C(=O)O[C@H]([C@H](C)C[C@@H]2CC[C@@H](O)[C@H](OC)C2)CC(=O)[C@H](C)/C=C(\C)[C@@H](O)[C@@H](OC)C(=O)[C@H](C)C[C@H](C)/C=C/C=C/C=C/1C [rapamycin, Rapamycin (sirolimus)]
[1]
  effect on cell proliferation: modestly reduced cell proliferation
[2]
  response of tumorgraft lines: Most lines responded
